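Each compound was tested at five concentrations against cells in 96-well plates for 48 hours. The concentration for 50% growth inhibition is given as GI50.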 Calls of active or inactive are those of the source. Cut-off read from the data, not from the text of the source: active = GI50 up to about 1.1 µM and inactive = higher.
What was measured:
Assay in all cases: NCI tumour cell line growth inhibition, 48 h
COLO 205 = test system: COLO 205
HCC 2998 = test system: HCC 2998
HT-29 = test system: HT-29
MDA-N = test system: MDA-N
U-251 = test system: U-251
HCT-116 = test system: HCT-116
ACHN = test system: ACHN
SNB-19 = test system: SNB-19
SF-295 = test system: SF-295
NCI-H23 = test system: NCI-H23
A549 = test system: A549
MOLT-4 = test system: MOLT-4
SK-MEL-2 = test system: SK-MEL-2
786-0 = test system: 786-0
T47D = test system: T47D
SR = test system: SR
K562 = test system: K562
NCI-H522 = test system: NCI-H522
SF-539 = test system: SF-539
RXF 393 = test system: RXF 393
CCRF-CEM = test system: CCRF-CEM
MDA-MB-231 = test system: MDA-MB-231
M14 = test system: M14
RPMI-8226 = test system: RPMI-8226
UACC-257 = test system: UACC-257
Hs-578T = test system: Hs-578T
SK-OV-3 = test system: SK-OV-3
UACC-62 = test system: UACC-62
SW-620 = test system: SW-620
OVCAR-3 = test system: OVCAR-3
SK-MEL-5 = test system: SK-MEL-5
HOP-92 = test system: HOP-92
HL-60 = test system: HL-60
OVCAR-5 = test system: OVCAR-5
CAKI-1 = test system: CAKI-1
NCI-H460 = test system: NCI-H460
A498 = test system: A498
PC-3 = test system: PC-3
TK-10 = test system: TK-10
NCI-H226 = test system: NCI-H226
OVCAR-4 = test system: OVCAR-4
SF-268 = test system: SF-268
BT-549 = test system: BT-549
MDA-MB-435 = test system: MDA-MB-435
UO-31 = test system: UO-31
Malme-3M = test system: Malme-3M
MCF7 = test system: MCF7
IGROV-1 = test system: IGROV-1
HOP-62 = test system: HOP-62
EKVX = test system: EKVX
SN12C = test system: SN12C
HCT-15 = test system: HCT-15
DU-145 = test system: DU-145
SK-MEL-28 = test system: SK-MEL-28
LOX IMVI = test system: LOX IMVI

SMILES: CNc1ncnc2c1cnn2CCCCO
- GI50 (COLO 205): > 100 µM (inactive)
- GI50 (HCC 2998): > 100 µM (inactive)
- GI50 (HT-29): > 100 µM (inactive)
- GI50 (MDA-N): > 100 µM (inactive)
- GI50 (U-251): > 100 µM (inactive)
- GI50 (HCT-116): > 100 µM (inactive)
- GI50 (ACHN): > 100 µM (inactive)
- GI50 (SNB-19): > 100 µM (inactive)
- GI50 (SF-295): > 100 µM (inactive)
- GI50 (NCI-H23): > 100 µM (inactive)
- GI50 (A549): > 100 µM (inactive)
- GI50 (MOLT-4): > 100 µM (inactive)
- GI50 (SK-MEL-2): > 100 µM (inactive)
- GI50 (786-0): > 100 µM (inactive)
- GI50 (T47D): > 100 µM (inactive)
- GI50 (SR): > 100 µM (inactive)
- GI50 (K562): > 100 µM (inactive)
- GI50 (NCI-H522): > 100 µM (inactive)
- GI50 (SF-539): > 100 µM (inactive)
- GI50 (RXF 393): > 100 µM (inactive)
- GI50 (CCRF-CEM): > 100 µM (inactive)
- GI50 (MDA-MB-231): > 100 µM (inactive)
- GI50 (M14): > 100 µM (inactive)
- GI50 (RPMI-8226): > 100 µM (inactive)
- GI50 (UACC-257): > 100 µM (inactive)
- GI50 (Hs-578T): > 100 µM (inactive)
- GI50 (SK-OV-3): > 100 µM (inactive)
- GI50 (UACC-62): > 100 µM (inactive)
- GI50 (SW-620): > 100 µM (inactive)
- GI50 (OVCAR-3): > 100 µM (inactive)
- GI50 (SK-MEL-5): > 100 µM (inactive)
- GI50 (HOP-92): > 100 µM (inactive)
- GI50 (HL-60): > 100 µM (inactive)
- GI50 (OVCAR-5): > 100 µM (inactive)
- GI50 (CAKI-1): > 100 µM (inactive)
- GI50 (NCI-H460): > 100 µM (inactive)
- GI50 (A498): > 100 µM (inactive)
- GI50 (PC-3): > 100 µM (inactive)
- GI50 (TK-10): > 100 µM (inactive)
- GI50 (NCI-H226): > 100 µM (inactive)
- GI50 (OVCAR-4): > 100 µM (inactive)
- GI50 (SF-268): > 100 µM (inactive)
- GI50 (BT-549): > 100 µM (inactive)
- GI50 (MDA-MB-435): > 100 µM (inactive)
- GI50 (UO-31): > 100 µM (inactive)
- GI50 (Malme-3M): > 100 µM (inactive)
- GI50 (MCF7): > 100 µM (inactive)
- GI50 (IGROV-1): > 100 µM (inactive)
- GI50 (HOP-62): > 100 µM (inactive)
- GI50 (EKVX): > 100 µM (inactive)
- GI50 (SN12C): > 100 µM (inactive)
- GI50 (HCT-15): > 100 µM
- GI50 (DU-145): > 100 µM (inactive)
- GI50 (SK-MEL-28): > 100 µM (inactive)
- GI50 (LOX IMVI): > 100 µM (inactive)

Reference: ChEMBL document CHEMBL1201862, “PubChem BioAssay data set” (2004)
